According to publication PMC6269909, “Investigating the Antioxidant and Acetylcholinesterase Inhibition Activities of Gossypium herbaceam” (Molecules, 2013):
Read-outs that look alike come from different tables or passages of the source.

Key:
[1] = DPPH radical scavenging assay; type: biochemical; details: Table 2, mean of three replicates, read-out: IC50 for inhibition of DPPH radical formation
Text: (§1) The DPPH radical activity test was used to measure the hydrogen atom or electron donor capacity of the samples to the stable radical DPPH formed in liquid solution. Thus, it measures the capacity of the samples to scavenge free radicals in solution [17]. Proton radical scavenging is an important attribute of antioxidants. […] ABTS, a protonated radical, has characteristic absorbance at 734 nm which decreases with the scavenging of the proton radicals. […]
DPPH is a stable free radical that reacts with compounds that can donate a hydrogen atom. This method is based on the scavenging of DPPH through the addition of a radical species or an antioxidant that decolorizes the DPPH solution. The antioxidant activity is then measured by the extent of decrease in absorption at 515 nm. In brief, a 0.2 mM solution of DPPH in methanol was prepared, and 100 μL of this solution was added to 100 μL of the sample solution in methanol at varying concentrations. The solutions in the 96 well micro plates were shaken well and incubated in the dark for 30 minutes at room temperature. The absorbance was measured at 515 nm. A large decrease in the absorbance of the reaction mixture indicates substantial free radical scavenging activity of the compound. DPPH radical scavenging activity (%) = [(Abscontrol − Abscompound)]/(Abscontrol)] × 100 where Abscontrol is the absorbance of DPPH radical + methanol; Abscompound is the absorbance of DPPH radical + compound/standard.

[2] = ABTS radical scavenging assay; type: biochemical; details: Table 2, mean of three replicates, read-out: IC50 for inhibition of ABTS radical formation
Text: as §1
The ABTS radical scavenging method was developed by Rice-Evans and Miller in 1994 and was then modified by Rice-Evants et al. in 1999. The modification is based on the activation of metmyo-globin with hydrogen peroxide in the presence of ABTS^•+ to produce a radical cation. This improved method generates a blue/green ABTS^•+ chromophore via the reaction of ABTS and potassium persulfate and is now widely used. The antioxidant activity is then measured by the decrease in absorption at 734 nm. In brief, ABTS radical cation (ABTS^•+) was produced by reacting ABTS stocking solution with […] potassium persulfate and kept in the dark at room temperature for 12–16 h before use. The samples containing the ABTS^•+ solution were diluted with methanol to obtain an absorbance of 0.700 (±0.02) at 734 nm and equilibrated at 30 °C. The ABTS^•+ solution was freshly prepared for each assay. Different concentrations of compounds (16 μL) were allowed to react with 184 μL of the ABTS^•+ solution and the absorbance was taken at 734 nm after 7 min using spectrophotometer. The ABTS^•+ scavenging capacity of the compound percentage inhibition was calculated using formula: ABTS radical scavenging activity (%) = [(Abscontrol − Abscompound)]/(Abscontrol)] × 100, where Abscontrol is the absorbance of ABTS radical + methanol; Abscompound is the absorbance of ABTS radical + compound/standard.

[3] = Lipid peroxidation assay (TBARS), egg yolk homogenates; type: biochemical; details: Table 2; egg yolk homogenate, FeSO4; mean of three replicates; read-out: IC50 for inhibition of peroxidation of lipids, estimated as thiobarbituric acid reactive substances
Protocol: Lipid peroxidation involves the formation and propagation of lipid radicals with numerous deleterious effects, including destruction of membrane lipids, metabolic disorders and inflammation, and production of malondialdehyde (MDA) is a hallmark of this process. Inhibition of lipid peroxidation was assessed by amount of MDA produced. Lipids in egg yolk undergo rapid nonenzymatic peroxidation in the presence of ferrous sulphate. […] Phenolics present in plant sources have received considerable attention over the past decade because of their potential to prevent lipid peroxidation and diseases associated with it.
A modified thiobarbituric acid-reactive species (TBARS) assay was used to measure the lipid peroxide formed, using egg yolk homogenates as lipid-rich media. Adapted TBARS method was employed to measure the antioxidant capacity. Briefly, egg homogenate (100 μL of 1:25, v/v in phosphate-buffered saline (PBS) PH 7.4) and 10 μL of different concentrations of sample were added to a test tube as well as added 25 mmol/L freshly prepared FeSO4 made up to 300 μL with PBS. The homogenate was incubated at 37 °C for 15 min and then the reaction was stopped by adding 50 μL 15% w/v trichloroacetic acid (TCA) and centrifugation (3,500 rpm) for 15 min. An aliquot of 200 μL from supernatant was mixed with 100 μL thiobarbituric acid (TBA) and heated at 95 °C for 30 min.

[4] = biological target: T1, Acetylcholinesterase (AChE) type VI-S from electric eel (Electrophorus electricus, UniProt O42275); test: biochemical
T1 construct: purchased Sigma (St. Louis, MO, USA)
Text: Acetylcholinesterase (AChE) type VI-S from electric eel, 5-5′-dithiobis-[2-nitrobenzoicacid] (DTNB), 1-1-diphenyl-2-picrylhydrazyl (DPPH), 2,2'-azinobis-(3-ethylbenzothiazoline-6-sulfonic acid) (ABTS), acetylthiocholine iodide (AChI), dimethyl sulfoxide (DMSO), ferrous sulfate (FeSO4·7H2O), thiobarbituric acid (TBA), trichloroacetic acid (TCA), potassium ferricyanide were obtained from Sigma (St. Louis, MO, USA). L-3-ketothreohexuronic acid lactone (vitamin C) and huperzine A were purchased from the National Institutes for Food and Drug Control, Beijing, China. All the other reagents were of analytical grade.
Inhibition of acetyl cholinesterase activity of samples was measured by the micro-plate assay adapted. AChE inhibitory activity was measured by slightly modifying the spectrophotometric method from the literature which was initially developed by Ellman. Briefly, in this method, 100 μL of […] sodium phosphate buffer (pH = 8.0), 20 μL of DTNB, 20 μL of test solution and 2 μL of AChE solution were added using a multichannel automatic pipette into a 96-well micro plate and incubated for 15 min at 25 °C.

[5] = tested on: PC12 cells; test: tBHP exposure in PC12 cells, cell viability (MTT); type: cell-based, Rat; details: for Protection against tBHP-induced cell death in PC12 cells (cell viability, MTT): pre-treated 100 μM for 24 h, then tBHP 200 μM for 3 h, p < 0.05
Protocol: tBHP caused a reduction in cell viability with an IC50 value for PC12 cells death at 200 μM. PC12 cells were an established model of nerve growth factor (NGF) - induced neurite formation. […] In the control sample, the value of cell viability was set to be 100%.
Rat pheochromocytoma cells (PC12) cells were kindly donated by Professor Dong T. X. (The Hong Kong University of Science and Technology, Hong Kong, China). PC12 cells were maintained in 75 cm culture flasks containing 20 mL of RPMI-1640 media supplemented with 1% FBS, 1% L-glutamine, 1% non-essential amino acids and 1% penicillin/streptomycin. Cells were maintained in an incubator at 37 °C with 5% CO2. Experiments and cell maintenances were performed in a laminar flow hood under sterile conditions. Cells were passaged every 4–5 days and detached from flasks using 1× trypsin EDTA. Cell counts were performed using trypan blue to stain non viable cells, which were excluded from the count. Ninety-six well plates were used for cell viability experiments. The cells were then allowed to equilibrate for 24 h before the experiment.
H2O2 is a well established pro-oxidant in PC12 cells over the concentration range used. tBHP shares some of the same properties of H2O2 but generates a more shallow neurotoxicity response over a wider concentration range than H2O2 in PC12 cells and elicits greater lipid peroxidation. […] For anti-oxidation effect, the cultures were treated with tBHP (200 μM) for 3 h. Cultures were subjected to cell viability test using the colorimetric MTT assay. Purple crystal inside the cells was dissolved by DMSO and measured by absorbance at 570 nm.

[6] = Table 2, mean of three replicates, read-out: IC50 for inhibition of AChE

T1 sequence (O42275 24-633): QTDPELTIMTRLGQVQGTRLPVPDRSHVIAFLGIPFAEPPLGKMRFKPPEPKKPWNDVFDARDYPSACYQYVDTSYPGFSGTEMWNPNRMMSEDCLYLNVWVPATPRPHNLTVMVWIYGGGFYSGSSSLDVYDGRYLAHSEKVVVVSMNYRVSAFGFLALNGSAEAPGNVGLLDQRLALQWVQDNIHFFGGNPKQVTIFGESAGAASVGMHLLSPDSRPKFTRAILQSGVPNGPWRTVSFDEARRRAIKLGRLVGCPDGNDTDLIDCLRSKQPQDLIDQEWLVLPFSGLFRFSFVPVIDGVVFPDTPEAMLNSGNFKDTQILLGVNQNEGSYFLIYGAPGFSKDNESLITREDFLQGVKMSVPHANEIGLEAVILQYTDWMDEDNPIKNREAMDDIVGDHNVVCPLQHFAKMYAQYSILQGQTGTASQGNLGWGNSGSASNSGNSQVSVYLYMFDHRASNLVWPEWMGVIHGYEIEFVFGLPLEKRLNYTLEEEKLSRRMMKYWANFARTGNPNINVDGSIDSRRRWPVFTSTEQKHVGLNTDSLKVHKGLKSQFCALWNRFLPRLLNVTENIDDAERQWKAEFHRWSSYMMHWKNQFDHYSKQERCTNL

Row | Structure (SMILES) | IC50 [1] [µM] | IC50 [2] [µM] | IC50 [3] [µM] | IC50 [4] [µM] | IC50 [4, 6] [µM] | Protection against tBHP-induced cell death in PC12 cells (cell viability, MTT) [5] | IC50 ([1]; listed as quercetin) [µM] | IC50 ([2]; listed as quercetin) [µM] | IC50 ([5]; reduction in cell viability by tBHP, read-out: IC50 value for PC12 cells death) [µM]
1 | O=c1c(O[C@@H]2O[C@H](CO)[C@H](O)[C@H](O)[C@H]2O)c(-c2ccc(O)c(O)c2)oc2cc(O)cc(O)c12 [Hyperoside] | 11.2 | 113 | 7.47 | 94.6 | – | – | – | – | –
2 | O=c1c(O[C@@H]2O[C@H](CO)[C@@H](O)[C@H](O)[C@H]2O)c(-c2ccc(O)c(O)c2)oc2cc(O)cc(O)c12 [Isoquercetin] | 3.65 | 26.9 | 8.81 | 57 | – | – | – | – | –
3 | COc1cc(-c2oc3cc(O[C@@H]4O[C@H](CO)[C@@H](O)[C@H](O)[C@H]4O)cc(O)c3c(=O)c2O)ccc1O [Isorhamnetin-7-O-β-D-glucopyranoside] | 1.73 | 21.8 | 7.2 | – | 55.7 | – | – | – | –
4 | O=c1c(O)c(-c2ccc(O)cc2)oc2cc(O)cc(O)c12 [Kaempferol] | 5.52 | 41.4 | – | – | – | could exert the anti-oxidation effect in protecting the tBHP-induced cell death | – | – | –
5 | O=c1c(O[C@@H]2O[C@H](CO)[C@@H](O)[C@H](O)[C@H]2O)c(-c2ccc(O)c(O)c2)oc2cc(O[C@@H]3O[C@H](CO)[C@@H](O)[C@H](O)[C@H]3O)cc(O)c12 [Quercetin-3,7-di-O-β-D-glucopyranosid] | 5.48 | 50.8 | 33.4 | – | 67.1 | – | – | – | –
6 | O=c1c(O)c(-c2ccc(O)c(O[C@@H]3O[C@H](CO)[C@@H](O)[C@H](O)[C@H]3O)c2)oc2cc(O)cc(O)c12 [Quercetin-3′-O-β-D-glucoside] | 3.75 | 34.7 | 8.9 | – | 88.6 | could exert the anti-oxidation effect in protecting the tBHP-induced cell death | – | – | –
7 | O=c1c(O)c(-c2ccc(O)c(O)c2)oc2cc(O)cc(O)c12 [Quercetin] | 0.84 | 19.6 | 13.1 | – | – | – | 19.6 | 0.84 | –
8 | O=c1c(O)c(-c2ccc(O)c(O)c2)oc2cc(OC3OC(CO)C(O)C(O)C3O)cc(O)c12 (stereo not drawn) [Quercimeritin] | 3.69 | 24.9 | 6.85 | 52.3 | – | could exert the anti-oxidation effect in protecting the tBHP-induced cell death | – | – | –
9 | O=C1O[C@H]([C@@H](O)CO)C(O)=C1O [Vit C, L-3-ketothreohexuronic acid lactone, reference compound] | – | – | – | – | – | protect the cells against oxidation significantly | – | – | –
10 | CC(C)(C)OO [tBHP, tertiary butyl hydroperoxide, reference compound] | – | – | – | – | – | – | – | – | 200
